Data from patent publication US20140235689A1, “FUNGICIDAL PYRAZOLES” (E I DU PONT DE NEMOURS AND COMPANY, priority 2013, published 2014).

Legend:
Format in all cases: in vivo
[1] = system: Puccinia recondita f. sp. tritici; test: Test F: wheat leaf rust, preventive spray on wheat seedlings; details: 200 ppm test suspension, inoculated following day, visual rating, relative to controls
Procedure: General protocol for preparing test suspensions for Tests A-D: the test compounds were first dissolved in acetone in an amount equal to 3% of the final volume and then suspended at the desired concentration (in ppm) in acetone and purified water (50/50 mix by volume) containing 250 ppm of the surfactant Trem® 014 (polyhydric alcohol esters). The resulting test suspensions were then used in Tests A-G. Each test was conducted in triplicate, and the results were averaged. Spraying a 200 ppm test suspension to the point of run-off on the test plants was the equivalent of a rate of 800 g/ha. Unless otherwise indicated, the rating values indicate a 200 ppm test suspension was used. (An asterisk “*” next to the rating value indicates a 40 ppm test suspension was used.) The test suspension was sprayed to the point of run-off on wheat seedlings. The following day the seedlings were inoculated with a spore suspension of Puccinia recondita f. sp. tritici (the causal agent of wheat leaf rust) and incubated in a saturated atmosphere at 20° C. for 24 h, and then moved to a growth chamber at 20° C. for 6 days, after which time visual disease ratings were made. Results for Tests A-G are given in Table A. In the Table, a rating of 100 indicates 100% disease control and a rating of 0 indicates no disease control (relative to the controls). A hyphen (-) indicates no test results.

Septoria tritici = test: Test D: wheat leaf blotch, preventive spray on wheat seedlings; details: 200 ppm test suspension, inoculated following day, visual rating, relative to controls
Procedure: General protocol for preparing test suspensions for Tests A-D: the test compounds were first dissolved in acetone in an amount equal to 3% of the final volume and then suspended at the desired concentration (in ppm) in acetone and purified water (50/50 mix by volume) containing 250 ppm of the surfactant Trem® 014 (polyhydric alcohol esters). The resulting test suspensions were then used in Tests A-G. Each test was conducted in triplicate, and the results were averaged. Spraying a 200 ppm test suspension to the point of run-off on the test plants was the equivalent of a rate of 800 g/ha. Unless otherwise indicated, the rating values indicate a 200 ppm test suspension was used. (An asterisk “*” next to the rating value indicates a 40 ppm test suspension was used.) The test suspension was sprayed to the point of run-off on wheat seedlings. The following day the seedlings were inoculated with a spore suspension of Septoria tritici (the causal agent of wheat leaf blotch) and incubated in saturated atmosphere at 24° C. for 48 h. and then the seedlings were moved to a growth chamber at 20° C. for 19 additional days, after which time visual disease ratings were made. Results for Tests A-G are given in Table A. In the Table, a rating of 100 indicates 100% disease control and a rating of 0 indicates no disease control (relative to the controls). A hyphen (-) indicates no test results.

[2] = system: Blumeria graminis f. sp. tritici; test: Test G: wheat powdery mildew, preventive spray on wheat seedlings; details: 200 ppm test suspension, inoculated following day with spore dust, visual rating, relative to controls
Procedure: General protocol for preparing test suspensions for Tests A-D: the test compounds were first dissolved in acetone in an amount equal to 3% of the final volume and then suspended at the desired concentration (in ppm) in acetone and purified water (50/50 mix by volume) containing 250 ppm of the surfactant Trem® 014 (polyhydric alcohol esters). The resulting test suspensions were then used in Tests A-G. Each test was conducted in triplicate, and the results were averaged. Spraying a 200 ppm test suspension to the point of run-off on the test plants was the equivalent of a rate of 800 g/ha. Unless otherwise indicated, the rating values indicate a 200 ppm test suspension was used. (An asterisk “*” next to the rating value indicates a 40 ppm test suspension was used.) The test suspension was sprayed to the point of run-off on wheat seedlings. The following day the seedlings were inoculated with a spore dust of Blumeria graminis f. sp. tritici (also known as Erysiphe graminis f. sp. tritici, the causal agent of wheat powdery mildew) and incubated in a growth chamber at 20° C. for 8 days, after which time visual disease ratings were made. Results for Tests A-G are given in Table A. In the Table, a rating of 100 indicates 100% disease control and a rating of 0 indicates no disease control (relative to the controls). A hyphen (-) indicates no test results.

Botrytis cinerea = test: Test A: tomato Botrytis, preventive spray on tomato seedlings; details: 200 ppm test suspension, inoculated following day, visual rating, relative to controls
Procedure: General protocol for preparing test suspensions for Tests A-D: the test compounds were first dissolved in acetone in an amount equal to 3% of the final volume and then suspended at the desired concentration (in ppm) in acetone and purified water (50/50 mix by volume) containing 250 ppm of the surfactant Trem® 014 (polyhydric alcohol esters). The resulting test suspensions were then used in Tests A-G. Each test was conducted in triplicate, and the results were averaged. Spraying a 200 ppm test suspension to the point of run-off on the test plants was the equivalent of a rate of 800 g/ha. Unless otherwise indicated, the rating values indicate a 200 ppm test suspension was used. (An asterisk “*” next to the rating value indicates a 40 ppm test suspension was used.) The test suspension was sprayed to the point of run-off on tomato seedlings. The following day the seedlings were inoculated with a spore suspension of Botrytis cinerea (the causal agent of tomato Botrytis) and incubated in saturated atmosphere at 20° C. for 48 h, and then moved to a growth chamber at 24° C. for 3 additional days, after which time visual disease ratings were made. Results for Tests A-G are given in Table A. In the Table, a rating of 100 indicates 100% disease control and a rating of 0 indicates no disease control (relative to the controls). A hyphen (-) indicates no test results.

[3] = system: Puccinia recondita f. sp. tritici; test: Test E: wheat leaf rust, spray after inoculation (curative) on wheat seedlings; details: 200 ppm test suspension, wheat seedlings sprayed after inoculation, visual rating, relative to controls
Procedure: General protocol for preparing test suspensions for Tests A-D: the test compounds were first dissolved in acetone in an amount equal to 3% of the final volume and then suspended at the desired concentration (in ppm) in acetone and purified water (50/50 mix by volume) containing 250 ppm of the surfactant Trem® 014 (polyhydric alcohol esters). The resulting test suspensions were then used in Tests A-G. Each test was conducted in triplicate, and the results were averaged. Spraying a 200 ppm test suspension to the point of run-off on the test plants was the equivalent of a rate of 800 g/ha. Unless otherwise indicated, the rating values indicate a 200 ppm test suspension was used. (An asterisk “*” next to the rating value indicates a 40 ppm test suspension was used.) Wheat seedlings were inoculated with a spore suspension of Puccinia recondita f. sp. tritici (the causal agent of wheat leaf rust) and incubated in a saturated atmosphere at 20° C. for 24 h, and then moved to a growth chamber at 20° C. for 2 days. After 2 days, the test suspension was sprayed to the point of run-off on the wheat seedlings, and then the seedlings were moved back to the growth chamber at 20° C. for 4 days. Upon removal, visual disease ratings were made. […]

Alternaria solani = test: Test B: tomato early blight, preventive spray on tomato seedlings; details: 200 ppm test suspension, inoculated following day, visual rating, relative to controls
Procedure: General protocol for preparing test suspensions for Tests A-D: the test compounds were first dissolved in acetone in an amount equal to 3% of the final volume and then suspended at the desired concentration (in ppm) in acetone and purified water (50/50 mix by volume) containing 250 ppm of the surfactant Trem® 014 (polyhydric alcohol esters). The resulting test suspensions were then used in Tests A-G. Each test was conducted in triplicate, and the results were averaged. Spraying a 200 ppm test suspension to the point of run-off on the test plants was the equivalent of a rate of 800 g/ha. Unless otherwise indicated, the rating values indicate a 200 ppm test suspension was used. (An asterisk “*” next to the rating value indicates a 40 ppm test suspension was used.) The test suspension was sprayed to the point of run-off on tomato seedlings. The following day the seedlings were inoculated with a spore suspension of Alternaria solani (the causal agent of tomato early blight) and incubated in a saturated atmosphere at 27° C. for 48 h, and then moved to a growth chamber at 20° C. for 5 days, after which time visual disease ratings were made. Results for Tests A-G are given in Table A. In the Table, a rating of 100 indicates 100% disease control and a rating of 0 indicates no disease control (relative to the controls). A hyphen (-) indicates no test results.

Septoria nodorum = test: Test C: Septoria glume blotch, preventive spray on wheat seedlings; details: 200 ppm test suspension, inoculated following day, visual rating, relative to controls
Procedure: General protocol for preparing test suspensions for Tests A-D: the test compounds were first dissolved in acetone in an amount equal to 3% of the final volume and then suspended at the desired concentration (in ppm) in acetone and purified water (50/50 mix by volume) containing 250 ppm of the surfactant Trem® 014 (polyhydric alcohol esters). The resulting test suspensions were then used in Tests A-G. Each test was conducted in triplicate, and the results were averaged. Spraying a 200 ppm test suspension to the point of run-off on the test plants was the equivalent of a rate of 800 g/ha. Unless otherwise indicated, the rating values indicate a 200 ppm test suspension was used. (An asterisk “*” next to the rating value indicates a 40 ppm test suspension was used.) The test suspension was sprayed to the point of run-off on wheat seedlings. The following day the seedlings were inoculated with a spore suspension of Septoria nodorum (the causal agent of Septoria glume blotch) and incubated in a saturated atmosphere at 24° C. for 48 h, and then moved to a growth chamber at 20° C. for 9 days, after which time visual disease ratings were made. Results for Tests A-G are given in Table A. In the Table, a rating of 100 indicates 100% disease control and a rating of 0 indicates no disease control (relative to the controls). A hyphen (-) indicates no test results.

SMILES: Cc1nn(C)c(C(N)c2ccc(F)cc2F)c1-c1c(F)cccc1F (stereo not drawn) [Compound 3, α-(2,4-difluorophenyl)-4-(2,6-difluorophenyl)-1,3-dimethyl-1H-pyrazol-5-methanamine]
- Test F disease control rating (100 = 100% disease control, 0 = no disease control) [1]: 99
- Test D disease control rating (100 = 100% disease control, 0 = no disease control) (Septoria tritici): 100
- Test G disease control rating (100 = 100% disease control, 0 = no disease control) [2]: 98
- Test A disease control rating (100 = 100% disease control, 0 = no disease control) (Botrytis cinerea): 98

SMILES: CSC(c1ccc(F)cc1F)c1c(-c2c(F)cccc2F)c(C)nn1C (centres unmarked) [Compound 4, 4-(2,6-difluorophenyl)-5-[(2,4-difluorophenyl)(methylthio)methyl]-1,3-dimethyl-1H-pyrazole]
- Test F disease control rating (100 = 100% disease control, 0 = no disease control) [1]: 85
- Test D disease control rating (100 = 100% disease control, 0 = no disease control) (Septoria tritici): 99
- Test E disease control rating (100 = 100% disease control, 0 = no disease control) [3]: 9
- Test G disease control rating (100 = 100% disease control, 0 = no disease control) [2]: 82
- Test B disease control rating (100 = 100% disease control, 0 = no disease control) (Alternaria solani): 0
- Test C disease control rating (100 = 100% disease control, 0 = no disease control) (Septoria nodorum): 0
- Test A disease control rating (100 = 100% disease control, 0 = no disease control) (Botrytis cinerea): 31

SMILES: CNC(c1ccc(F)cc1F)c1c(-c2c(F)cccc2F)c(C)nn1C (stereo not drawn) [Compound 2, α-(2,4-difluorophenyl)-4-(2,6-difluorophenyl)-N,1,3-trimethyl-1H-pyrazol-5-methanamine]
- Test F disease control rating (100 = 100% disease control, 0 = no disease control) [1]: 0
- Test D disease control rating (100 = 100% disease control, 0 = no disease control) (Septoria tritici): 99
- Test E disease control rating (100 = 100% disease control, 0 = no disease control) [3]: 0
- Test G disease control rating (100 = 100% disease control, 0 = no disease control) [2]: 82
- Test B disease control rating (100 = 100% disease control, 0 = no disease control) (Alternaria solani): 0
- Test C disease control rating (100 = 100% disease control, 0 = no disease control) (Septoria nodorum): 0
